Patent US10487068B2, “Pyridazine derivatives as RORc modulators” (Genentech, Inc., priority 2015, dated 2019)

target: T1, RORc ligand binding domain (Homo sapiens, UniProt P51449); assay: In Vitro RORc Ligand Binding Assay; settings: RORc IC50, radioligand 25-[3H]hydroxycholesterol 6 nM; 0.6 ug/mL RORc receptor; 3 h at 25° C.
T1 sequence (P51449 269-508 limits assumed): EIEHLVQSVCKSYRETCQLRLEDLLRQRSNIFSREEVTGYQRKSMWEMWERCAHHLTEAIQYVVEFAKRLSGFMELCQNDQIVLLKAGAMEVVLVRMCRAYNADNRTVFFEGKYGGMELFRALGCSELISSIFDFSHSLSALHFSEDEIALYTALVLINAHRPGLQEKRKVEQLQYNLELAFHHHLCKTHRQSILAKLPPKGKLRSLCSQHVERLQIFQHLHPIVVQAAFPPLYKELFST

`CC1(C)[C@H]2CC[C@]1(c1cncc(-c3nc(CC#N)co3)n1)c1nnc(-c3c(F)cccc3F)cc12` [Example 380, 2-(2-(6-((5R,8S)-3-(2,6-difluorophenyl)-9,9-dimethyl-5,6,7,8-tetrahydro-5,8-methanocinnolin-8-yl)pyrazin-2-yl)oxazol-4-yl)acetonitrile] and `CC1(C)[C@H]2CC[C@]1(c1cncc(-c3nc(CC(N)=O)co3)n1)c1nnc(-c3c(F)cccc3F)cc12` [Example 384, 2-(2-(6-((5R,8S)-3-(2,6-difluorophenyl)-9,9-dimethyl-5,6,7,8-tetrahydro-5,8-methanocinnolin-8-yl)pyrazin-2-yl)oxazol-4-yl)acetamide] are within 1.5-fold of each other in IC50: 6.1 nM for the first, 6.9 nM for the second.

`CC1(C)[C@@H]2CC[C@@]1(c1cncc(-n3ccc(CO)n3)n1)c1nnc(-c3c(F)cccc3F)cc12` [Example 381, (1-(6-((5S,8R)-3-(2,6-difluorophenyl)-9,9-dimethyl-5,6,7,8-tetrahydro-5,8-methanocinnolin-8-yl)pyrazin-2-yl)-1H-pyrazol-3-yl)methanol] and `CC1(C)[C@H]2CC[C@]1(c1cncc(-c3ccn(CC(N)=O)n3)n1)c1nnc(-c3c(F)cccc3F)cc12` [Example 411, 2-(3-(6-((5R,8S)-3-(2,6-difluorophenyl)-9,9-dimethyl-5,6,7,8-tetrahydro-5,8-methanocinnolin-8-yl)pyrazin-2-yl)-1H-pyrazol-1-yl)acetamide] are within 1.5-fold of each other in IC50: 6 nM for the first, 8.8 nM for the second.

`CC[C@@H](O)c1coc(-c2cncc([C@@]34CC[C@@H](c5cc(-c6c(F)cccc6F)nnc53)C4(C)C)n2)n1` [Example 382, (R)-1-(2-(6-((5R,8S)-3-(2,6-difluorophenyl)-9,9-dimethyl-5,6,7,8-tetrahydro-5,8-methanocinnolin-8-yl)pyrazin-2-yl)oxazol-4-yl)propan-1-ol] and `CC[C@H](O)c1coc(-c2cncc([C@@]34CC[C@@H](c5cc(-c6c(F)cccc6F)nnc53)C4(C)C)n2)n1` [Example 383, (S)-1-(2-(6-((5R,8S)-3-(2,6-difluorophenyl)-9,9-dimethyl-5,6,7,8-tetrahydro-5,8-methanocinnolin-8-yl)pyrazin-2-yl)oxazol-4-yl)propan-1-ol] are within 1.5-fold of each other in IC50: 7.3 nM for the first, 8.2 nM for the second.

First: CC1(C)[C@H]2CC[C@]1(c1ccnc(-c3cccnc3O)n1)c1nnc(-c3c(F)cccc3F)cc12 [Example 385]
Second: CC1(C)[C@H]2CC[C@]1(c1ccnc(-c3ccc(N)nc3)n1)c1nnc(-c3c(F)cccc3F)cc12 [Example 403]
The IC50 of the first is 2.9-fold higher: 19.7 nM for the first, 6.8 nM for the second. The second is the more potent here.

`CC1(C)[C@H]2CC[C@]1(c1ccnc(-c3cc[nH]c(=O)c3)n1)c1nnc(-c3c(F)cccc3F)cc12` [Example 386] and `CC1(C)[C@H]2CC[C@]1(c1ccnc(-c3cnc(=O)[nH]c3)n1)c1nnc(-c3c(F)cccc3F)cc12` [Example 409] are within 1.5-fold of each other in IC50: 9.8 nM for the first, 7.8 nM for the second.

Going from `CC(C)(O)c1coc(-c2cncc([C@]34CC[C@H](c5cc(-c6c(F)cccc6F)nnc53)C4(C)C)n2)n1` [Example 387, 2-(2-(6-((5S,8R)-3-(2,6-difluorophenyl)-9,9-dimethyl-5,6,7,8-tetrahydro-5,8-methanocinnolin-8-yl)pyrazin-2-yl)oxazol-4-yl)propan-2-ol] to `CC(C)(O)c1coc(-c2cncc([C@@]34CC[C@@H](c5cc(-c6ccccc6F)nnc53)C4(C)C)n2)n1` [Example 396, 2-(2-(6-((5R,8S)-3-(2-fluorophenyl)-9,9-dimethyl-5,6,7,8-tetrahydro-5,8-methanocinnolin-8-yl)pyrazin-2-yl)oxazol-4-yl)propan-2-ol], the IC50 falls from 8 nM to 4.8 nM (1.7-fold).

`CC(C)(O)c1ncc(-c2nccc([C@@]34CC[C@@H](c5cc(-c6c(F)cccc6F)nnc53)C4(C)C)n2)cn1` [Example 388] and `CC(C)(O)c1ncc(-c2cncc([C@@]34CC[C@@H](c5cc(-c6c(F)cccc6F)nnc53)C4(C)C)n2)cn1` [Example 394, 2-(5-(6-((5R,8S)-3-(2,6-difluorophenyl)-9,9-dimethyl-5,6,7,8-tetrahydro-5,8-methanocinnolin-8-yl)pyrazin-2-yl)pyrimidin-2-yl)propan-2-ol] are within 1.5-fold of each other in IC50: 7.3 nM for the first, 9.1 nM for the second.

Going from `Cc1ncn(-c2cc([C@@]34CC[C@@H](c5cc(-c6c(F)cccc6F)nnc53)C4(C)C)cnn2)n1` [Example 389, (5R,8S)-3-(2,6-difluorophenyl)-9,9-dimethyl-8-(6-(3-methyl-1H-1,2,4-triazol-1-yl)pyridazin-4-yl)-5,6,7,8-tetrahydro-5,8-methanocinnoline] to `Cc1ncnn1-c1cc([C@@]23CC[C@@H](c4cc(-c5c(F)cccc5F)nnc42)C3(C)C)cnn1` [Example 390, (5R,8S)-3-(2,6-difluorophenyl)-9,9-dimethyl-8-(6-(5-methyl-1H-1,2,4-triazol-1-yl)pyridazin-4-yl)-5,6,7,8-tetrahydro-5,8-methanocinnoline], the IC50 rises from 91.2 nM to 317 nM (3.5-fold). The first is the more potent here.

Compared with `Cc1cc([C@@]23CC[C@@H](c4cc(-c5c(F)cccc5F)nnc42)C3(C)C)nc(N)n1` [Example 391], `CC1(C)[C@H]2CC[C@]1(c1cncc(-c3cn[nH]n3)n1)c1nnc(-c3c(F)cccc3F)cc12` [Example 399] is 7-fold lower in IC50: 44.6 nM for the first, 6.4 nM for the second.

`CC(C)(O)c1ccc(-c2cncc([C@@]34CC[C@@H](c5cc(-c6c(F)cccc6F)nnc53)C4(C)C)n2)cn1` [Example 392, 2-(5-(6-((5R,8S)-3-(2,6-difluorophenyl)-9,9-dimethyl-5,6,7,8-tetrahydro-5,8-methanocinnolin-8-yl)pyrazin-2-yl)pyridin-2-yl)propan-2-ol] and `CC(C)(O)c1cc(-c2cncc([C@@]34CC[C@@H](c5cc(-c6c(F)cccc6F)nnc53)C4(C)C)n2)ccn1` [Example 393, 2-(4-(6-((5R,8S)-3-(2,6-difluorophenyl)-9,9-dimethyl-5,6,7,8-tetrahydro-5,8-methanocinnolin-8-yl)pyrazin-2-yl)pyridin-2-yl)propan-2-ol] are within 1.5-fold of each other in IC50: 5.5 nM for the first, 5.6 nM for the second.

First: CC1(C)[C@H]2CC[C@]1(c1cncc(-c3ccc(=O)[nH]c3)n1)c1nnc(-c3c(F)cccc3F)cc12 [Example 395, 5-(6-((5R,8S)-3-(2,6-difluorophenyl)-9,9-dimethyl-5,6,7,8-tetrahydro-5,8-methanocinnolin-8-yl)pyrazin-2-yl)pyridin-2(1H)-one]
Second: CC1(C)[C@H]2CC[C@]1(c1cncc(-c3cnc(=O)[nH]c3)n1)c1nnc(-c3c(F)cccc3F)cc12 [Example 401, 5-(6-((5R,8S)-3-(2,6-difluorophenyl)-9,9-dimethyl-5,6,7,8-tetrahydro-5,8-methanocinnolin-8-yl)pyrazin-2-yl)pyrimidin-2(1H)-one]
The IC50 of the first is 3.4-fold lower: 4.3 nM for the first, 14.7 nM for the second. The first is the more potent here.

`Cc1oc(-c2cncc([C@@]34CC[C@@H](c5cc(-c6c(F)cccc6F)nnc53)C4(C)C)n2)nc1C(C)(C)O` [Example 397, 2-(2-(6-((5R,8S)-3-(2,6-difluorophenyl)-9,9-dimethyl-5,6,7,8-tetrahydro-5,8-methanocinnolin-8-yl)pyrazin-2-yl)-5-methyloxazol-4-yl)propan-2-ol] and `CC(C)(O)c1cnc(-c2cncc([C@@]34CC[C@@H](c5cc(-c6c(F)cccc6F)nnc53)C4(C)C)n2)cn1` [Example 400, 2-(6′-((5R,8S)-3-(2,6-difluorophenyl)-9,9-dimethyl-5,6,7,8-tetrahydro-5,8-methanocinnolin-8-yl)-[2,2′-bipyrazin]-5-yl)propan-2-ol] are within 1.5-fold of each other in IC50: 10.4 nM for the first, 8.7 nM for the second.

Going from `CC1(C)[C@H]2CC[C@]1(c1cncc(C3(O)COC3)n1)c1nnc(-c3c(F)cccc3F)cc12` [Example 398, 3-(6-((5R,8S)-3-(2,6-difluorophenyl)-9,9-dimethyl-5,6,7,8-tetrahydro-5,8-methanocinnolin-8-yl)pyrazin-2-yl)oxetan-3-ol] to `CC(C)(O)Cn1cc(-c2cncc([C@@]34CC[C@@H](c5cc(-c6c(F)cccc6F)nnc53)C4(C)C)n2)cn1` [Example 406, 1-(4-(6-((5R,8S)-3-(2,6-difluorophenyl)-9,9-dimethyl-5,6,7,8-tetrahydro-5,8-methanocinnolin-8-yl)pyrazin-2-yl)-1H-pyrazol-1-yl)-2-methylpropan-2-ol], the IC50 falls from 12.5 nM to 7.6 nM (1.6-fold).

`CC1(C)[C@H]2CC[C@]1(c1cncc(-c3ccc(OCC(N)=O)nc3)n1)c1nnc(-c3c(F)cccc3F)cc12` [Example 402, 2-((5-(6-((5R,8S)-3-(2,6-difluorophenyl)-9,9-dimethyl-5,6,7,8-tetrahydro-5,8-methanocinnolin-8-yl)pyrazin-2-yl)pyridin-2-yl)oxy)acetamide] and `CC1(C)[C@H]2CC[C@]1(c1cncc(-c3ccnc(OCC(N)=O)c3)n1)c1nnc(-c3c(F)cccc3F)cc12` [Example 410, 2-((4-(6-((5R,8S)-3-(2,6-difluorophenyl)-9,9-dimethyl-5,6,7,8-tetrahydro-5,8-methanocinnolin-8-yl)pyrazin-2-yl)pyridin-2-yl)oxy)acetamide] are within 1.5-fold of each other in IC50: 8.1 nM for the first, 6.3 nM for the second.

`CC1(C)[C@H]2CC[C@]1(c1ccnc(-c3ccnc(C(N)=O)c3)n1)c1nnc(-c3c(F)cccc3F)cc12` [Example 404] and `CC1(C)[C@H]2CC[C@]1(c1nccc(-n3ccnc3)n1)c1nnc(-c3c(F)cccc3F)cc12` [Example 408, (5R,8R)-8-(4-(1H-imidazol-1-yl)pyrimidin-2-yl)-3-(2,6-difluorophenyl)-9,9-dimethyl-5,6,7,8-tetrahydro-5,8-methanocinnoline] are within 1.5-fold of each other in IC50: 9.2 nM for the first, 11 nM for the second.

`CC1(C)[C@H]2CC[C@]1(c1cncc(-c3cnn(CC(N)=O)c3)n1)c1nnc(-c3c(F)cccc3F)cc12` [Example 405, 2-(4-(6-((5R,8S)-3-(2,6-difluorophenyl)-9,9-dimethyl-5,6,7,8-tetrahydro-5,8-methanocinnolin-8-yl)pyrazin-2-yl)-1H-pyrazol-1-yl)acetamide] and `CC(C)(O)Cn1ccc(-c2cncc([C@@]34CC[C@@H](c5cc(-c6c(F)cccc6F)nnc53)C4(C)C)n2)n1` [Example 407, 1-(3-(6-((5R,8S)-3-(2,6-difluorophenyl)-9,9-dimethyl-5,6,7,8-tetrahydro-5,8-methanocinnolin-8-yl)pyrazin-2-yl)-1H-pyrazol-1-yl)-2-methylpropan-2-ol] are within 1.5-fold of each other in IC50: 7.7 nM for the first, 7.6 nM for the second.
